{"source": "patent US9717737B2", "about": "“Vacuolin-1 as an inhibitor of autophagy and endosomal trafficking and the use thereof for inhibiting tumor progression” (The University of Hong Kong, priority 2014, dated 2017)", "key": {"[1]": {"system": "human lung cancer stem cells (hLCSCs)", "assay": "Cell proliferation of lung cancer stem cells", "format": "cell-based", "description": "(§1) Cancer stem cells (CSCs), a subpopulation of cells within tumors, actually drive tumor growth and recurrence. CSCs are resistant to many current cancer treatments, including chemo- and radiation therapy, thus they can survive these therapy to regenerate new tumors. […] Therefore, it is of great interest to assess the anti-tumor effects of vacuolin-1 on CSCs."}, "[2]": {"system": "RFP-GFP-LC3 expressing HeLa cells", "assay": "RFP-GFP-LC3 (tfLC3) fluorescence image-based autophagy assay", "format": "cell-based", "description": "Prompted by the fact that many available autophagy chemical modulators lack either potency or specificity (Kimura et al., 2013), a fluorescence image-based assay was set up to screen small molecules affecting autophagy. HeLa cells, an autophagy competent cell line, were infected with lentiviruses carrying expression cassettes that encode RFP-GFP-LC3 (tfLC3) (Kimura et al., 2007). Thus, the LC3-II positive autophagosomes are labeled with both GFP and RFP signals shown as yellow puncta, and after fusion with lysosomes, autolysosomes are shown as red only puncta because GFP loses its fluorescence in acidic pH.\nNext, a panel of small chemicals that are commercially available and have been previously shown to affect vesicle trafficking or organelle morphology were selected and screened for their effects on autophagy regulation in tfLC3 expressing HeLa cells (data not shown)."}, "HeLa cells [3]": {"system": "HeLa cells", "assay": "DQ-BSA-green degradation assay (flow cytometry)", "format": "cell-based", "conditions": "1 μM", "procedure": "Since the increase of lysosomal pH normally compromises the lysosomal activity, it was assessed whether vacuolin-1 affects the general lysosomal functions to inhibit autophagy maturation. […] Next, an epidermal growth factor receptor (EGFR) degradation assay was performed to examine whether vacuolin-1 affects the general endosomal-lysosomal pathway. In this assay, HeLa cells were treated with EGF in the presence or absence of vacuolin-1. After EGF binds to its receptors (EGFR), the receptor complex undergoes endocytosis and is targeted tolysosomes for degradation. […] Similarly, a DQ-BSA-green degradation assay was applied to measure the general endosomal-lysosomal degradation. DQ-BSA-green is a BSA labeled with a self-quenching fluorescent dye. After DQ-BSA-green is delivered to lysosomes via endocytosis, it is hydrolyzed into single dye-labeled peptides by lysosomal proteases, thereby relieving self-quenching and the fluorescence can subsequently be monitored by flow cytometry."}, "CNE-1 and HONE-1 cells": {"system": "CNE-1 and HONE-1 cells", "assay": "Wound healing assay", "format": "cell-based, human", "procedure": "Although CQ has already been applied to treat a wide spectrum of human cancers, CQ induces ocular or renal toxicity and easily triggers drug resistance (Kimura et al., 2013). […] We first investigated the anti-tumor effects of vacuolin-1 in two nasopharyngeal carcinoma cell lines, CNE-1 and HONE-1. […] Alternatively, colony formation assay was performed to assess whether vacuolin-1 affects the ability of a single tumor cell to grow into a colony. […] We subsequently performed wound healing assay to assess whether vacuolin-1 affects the migration of tumor cells. […] Obviously, vacuolin-1 is an efficient anti-tumor agent in vitro."}, "HeLa cells [4]": {"system": "HeLa cells", "assay": "GPN induced lysosomal Ca2+ release in Fura-2 loaded cells", "format": "cell-based", "conditions": "1 μM pretreatment 5 hours, GPN 200 μM", "procedure": "Intracellular Ca^2+ measurement—Cells were cultured in 24-well plates at the density of 7×10^4 cells/well in regular medium overnight and were labeled with 4 μM Fura-2 AM (Invitrogen) in regular HMSS at room temperature for 30 min. The cells were then washed with calcium-free HMSS containing 2 mM EGTA three times and incubated in the presence or absence of vacuolin-1 at room temperature for another 10 min. Cells were put on the stage of an Olympus inverted epifluorescence microscope and visualized using a 20× objective. Fluorescence images were obtained by alternate excitation at 340 nm and 380 nm with emission set at 510 nm. Images were collected by a CCD camera every 3 or 6 seconds and analyzed by Cell R imaging software.\nSince lysosome is also a major intracellular Ca^2+ pool, and Ca^2+ and protons are tightly coupled in lysosomes (Morgan et al., 2011), it was also assessed whether vacuolin-1 treatment affects the lysosomal Ca^2+ content. Treatment of cells with glycyl-1-phenylalanine 2-naphthylamide (GPN) selectively disrupts the lysosomal membrane (Jadot et al., 2001), thereby releasing the lysosomal Ca^2+ (Srinivas et al., 2002)."}, "[5]": {"system": "human lung cancer stem cells (hLCSCs)", "assay": "Migration of hLCSCs", "format": "cell-based", "conditions": ">10 μM", "description": "as §1"}, "[6]": {"biological_target": "T1, V-ATPase (purified V1V0 holoenzyme) (Manduca sexta, UniProt P31400)", "T1 construct": "Assays contained 3 μg of purified V1V0 holoenzyme; from tissue; host or cells: Fifth instar larvae of M. sexta; The midgut goblet cell apical membrane is named only in the title of the cited Wieczorek et al. 1990, not in the method text", "T1 sequence (P31400 whole entry)": "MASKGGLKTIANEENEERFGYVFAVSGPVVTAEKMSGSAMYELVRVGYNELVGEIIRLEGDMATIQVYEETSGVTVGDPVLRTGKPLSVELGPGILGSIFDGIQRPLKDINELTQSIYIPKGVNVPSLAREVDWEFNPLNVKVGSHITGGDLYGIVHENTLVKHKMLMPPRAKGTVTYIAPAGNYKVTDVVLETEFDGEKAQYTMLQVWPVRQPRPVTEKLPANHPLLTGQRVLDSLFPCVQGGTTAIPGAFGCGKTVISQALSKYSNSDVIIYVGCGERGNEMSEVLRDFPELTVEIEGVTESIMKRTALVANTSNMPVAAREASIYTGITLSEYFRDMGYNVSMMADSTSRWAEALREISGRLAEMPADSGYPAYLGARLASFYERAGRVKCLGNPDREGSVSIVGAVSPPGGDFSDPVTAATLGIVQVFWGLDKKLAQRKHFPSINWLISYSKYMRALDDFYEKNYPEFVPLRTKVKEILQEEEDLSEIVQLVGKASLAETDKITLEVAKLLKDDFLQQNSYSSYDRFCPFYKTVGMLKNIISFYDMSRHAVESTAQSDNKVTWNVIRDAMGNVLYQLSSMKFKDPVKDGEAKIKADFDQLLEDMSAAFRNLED", "assay": "In vitro V-ATPase assay", "format": "biochemical, M. sexta", "procedure": "V-ATPase assay—Fifth instar larvae of M. sexta (Lepidoptera, Sphingidae), weighing 6-8 g, were reared under long day conditions (16 h of light) at 27° C. using the gypsy moth diet (MP Biomedicals, Germany). The purification of the V1VO holoenzyme was performed as previously described (Huss et al., 2002). Activity assays were performed in triplicate in a final volume of 160 μL and at a pH of 8.1. Assays contained 3 μg of purified V1V0 holoenzyme, 50 mM Tris-Mops, 3 mM 2-mercaptoethanol, 1 mM MgCl2, 20 mM KCl, 0.003% C12E10, 20 mM NaCl, and 3 mM Tris-HCl. After 10 min of preincubation at 30° C., with or without inhibitors, 1 mM Tris-ATP was added and after an incubation for 2 min at 30° C. the reaction was stopped by freezing the samples in liquid nitrogen. Inorganic phosphate was determined as previously described (Wieczorek et al., 1990)."}, "LCSC tumor xenograft": {"system": "LCSC tumor xenograft", "assay": "LCSC tumor xenograft in BALB/c nude mice", "format": "in vivo", "procedure": "We first assessed the ability of vacuolin-1 to suppress LCSC tumor xenograft in BALB/c nude mice. Briefly, 1×10^4 lung cancer stem cells (LCSCs, 3rd generation) were suspended in Matrigel (BD Biosciences) at a ratio of 1:1, and 200 iL of cells was subcutaneously injected into the back of nude mice. The tumor volume was measured every five days after injection and calculated from the formula: length×width×depth×π/6. Mice were removed from the study when their tumor volumes exceed 2000 mm^3 (FIG. 18A). […] Also, we tested the acute toxicity of vacuolin-1 in mice."}, "HeLa cells [7]": {"system": "HeLa cells", "assay": "Transmission electron microscopy of treated cells", "format": "cell-based", "procedure": "Cell preparation for transmission electron microscopy (TEM)—Cell preparation for TEM was performed as described previously (Mi et al., 2007)."}, "[8]": {"conditions": "nude mice, intratumoral injection 5 mg/kg twice a week"}}}
{"molecule": "Ic1cccc(/C=N/Nc2nc(N3CCOCC3)nc(N(c3ccccc3)c3ccccc3)n2)c1", "note": "[vacuolin-1]", "values": [{"measurement": "cell proliferation of hLCSCs", "setting": "[1]", "result": "did not affect the cell proliferation"}, {"measurement": "LC3 puncta (yellow = autophagosomes, red only = autolysosomes)", "setting": "[2]", "result": "potently induced LC3 yellow puncta, not red puncta"}, {"measurement": "degradation of DQ-BSA-green by lysosomes", "setting": "HeLa cells [3]", "result": "markedly inhibited the degradation of BSA"}, {"measurement": "migration of tumor cells (wound healing)", "setting": "CNE-1 and HONE-1 cells", "result": "efficiently suppressed the migration"}, {"measurement": "GPN induced lysosomal Ca2+ release", "setting": "HeLa cells [4]", "result": "significantly lowered"}, {"measurement": "migration of hLCSCs", "setting": "[5]", "result": "almost completely inhibited"}, {"measurement": "V-ATPase activity in vitro", "setting": "[6]", "result": "little effects"}, {"measurement": "autophagy in tumors", "setting": "LCSC tumor xenograft; LCSC xenograft, vacuolin-1 treatment", "result": "markedly inhibited autophagy"}, {"measurement": "tumor growth of LCSC xenograft", "setting": "LCSC tumor xenograft; [8]", "result": "markedly inhibited tumor growth"}, {"measurement": "weight gain of xenograft mice", "setting": "LCSC tumor xenograft; [8]", "result": "little effects"}, {"measurement": "autophagic vacuoles under the electron microscope", "setting": "HeLa cells [7]; HeLa cells in normal culture conditions, 1 μM", "result": "large numbers of autophagic vacuoles were observed"}, {"measurement": "lysosome morphology in electron micrograph", "setting": "HeLa cells [7]; HeLa cells, versus control", "result": "enlarged lysosomes"}]}
